Experimental data taken from patent US9796711B2, “Substituted pyrazolo[3,4-b]pyridin-6-carboxylic acids and method of use” (AbbVie S.àr.l., priority 2015, dated 2017).

Legend:
ΔF508-CFTR [1] = target: T1, ΔF508-CFTR (Homo sapiens, UniProt P13569, DEL508-508); assay: CFTR cell surface levels using HRP-tagged ΔF508-CFTR expressing CFBE cells, in the presence of a co-corrector; assay type: cell-based; settings: HRP-tagged ΔF508-CFTR expressing CFBE cells, in the presence of 3 μM co-corrector; for EC50: read-out: EC50
T1 construct: host or cells: CFBE41o-, doxycycline-inducible
T1 sequence (P13569 with tags, fused parts or gaps DEL508-508): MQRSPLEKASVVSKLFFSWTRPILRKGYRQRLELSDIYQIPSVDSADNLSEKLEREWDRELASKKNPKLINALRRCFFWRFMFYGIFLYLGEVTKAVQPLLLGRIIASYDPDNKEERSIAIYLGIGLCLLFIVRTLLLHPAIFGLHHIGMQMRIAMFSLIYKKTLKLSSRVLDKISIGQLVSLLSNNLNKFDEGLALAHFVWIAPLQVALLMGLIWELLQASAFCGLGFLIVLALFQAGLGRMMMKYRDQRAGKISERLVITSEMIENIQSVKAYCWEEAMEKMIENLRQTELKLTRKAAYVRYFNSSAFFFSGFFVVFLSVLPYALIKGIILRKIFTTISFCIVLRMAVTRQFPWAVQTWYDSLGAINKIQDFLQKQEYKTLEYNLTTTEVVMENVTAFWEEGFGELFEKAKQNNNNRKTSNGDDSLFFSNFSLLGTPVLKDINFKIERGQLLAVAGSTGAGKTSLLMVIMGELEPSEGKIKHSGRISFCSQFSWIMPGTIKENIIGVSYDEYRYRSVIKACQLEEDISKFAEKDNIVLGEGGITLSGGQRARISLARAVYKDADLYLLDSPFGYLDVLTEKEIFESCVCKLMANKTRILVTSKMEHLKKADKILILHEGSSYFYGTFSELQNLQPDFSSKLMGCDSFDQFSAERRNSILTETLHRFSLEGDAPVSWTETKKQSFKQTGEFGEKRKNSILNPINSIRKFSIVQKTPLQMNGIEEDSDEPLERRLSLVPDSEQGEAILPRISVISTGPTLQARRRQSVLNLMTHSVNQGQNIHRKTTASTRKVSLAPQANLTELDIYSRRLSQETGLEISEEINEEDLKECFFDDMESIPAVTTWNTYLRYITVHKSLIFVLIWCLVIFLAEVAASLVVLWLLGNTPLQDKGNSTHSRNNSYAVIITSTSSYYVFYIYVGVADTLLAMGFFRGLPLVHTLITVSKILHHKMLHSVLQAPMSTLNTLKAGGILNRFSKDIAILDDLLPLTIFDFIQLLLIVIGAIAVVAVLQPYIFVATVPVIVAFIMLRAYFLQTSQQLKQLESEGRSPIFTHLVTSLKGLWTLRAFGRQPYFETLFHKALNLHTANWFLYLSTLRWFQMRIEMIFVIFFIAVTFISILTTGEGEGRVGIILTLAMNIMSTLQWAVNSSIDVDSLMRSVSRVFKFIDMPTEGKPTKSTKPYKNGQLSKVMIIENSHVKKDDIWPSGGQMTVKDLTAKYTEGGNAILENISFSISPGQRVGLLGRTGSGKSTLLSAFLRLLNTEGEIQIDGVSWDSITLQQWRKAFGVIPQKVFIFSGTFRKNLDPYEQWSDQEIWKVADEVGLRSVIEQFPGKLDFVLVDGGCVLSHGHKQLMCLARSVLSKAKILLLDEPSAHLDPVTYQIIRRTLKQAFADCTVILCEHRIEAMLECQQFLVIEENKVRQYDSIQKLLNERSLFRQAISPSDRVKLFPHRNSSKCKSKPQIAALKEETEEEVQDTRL
In short: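 Cells were seeded with 0.5 μg/mL doxycycline and held 68 h at 37 °C. Test compounds plus 3 μM co-corrector (final 0.1% DMSO) were then added for 20 h at 33 °C. Washed cells received HRP substrate, and luminescence was normalized between DMSO and 3 μM co-corrector controls.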

ΔF508-CFTR [2] = target: T1, ΔF508-CFTR; assay: CFTR cell surface levels using HRP-tagged ΔF508-CFTR expressing CFBE cells, intrinsic corrector capacity; assay type: cell-based; settings: HRP-tagged ΔF508-CFTR CFBE41o- cells, compounds alone (intrinsic corrector capacity), 20 hours at 33° C.; for % Activation: positive control 3 μM corrector; for EC50: read-out: EC50
In short: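 Here the cells express ΔF508-CFTR with horseradish peroxidase inserted in extracellular loop 4, so only rescued channel at the surface gives luminescent signal. Compounds act on their own, 20 h at the reduced temperature of 33 °C; values are percent activity relative to DMSO and a 3 μM corrector.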

Compound	% Activation (ΔF508-CFTR [1])	EC50 (ΔF508-CFTR [1])	% Activation (ΔF508-CFTR [2])	EC50 (ΔF508-CFTR [2])
Cc1cccc(-n2nc(C(C)C)c3c(N4CC(F)C4)cc(C(=O)O)nc32)c1 [compound 174, 4-(3-fluoroazetidin-1-yl)-1-(3-methylphenyl)-3-(propan-2-yl)-1H-pyrazolo[3,4-b]pyridine-6-carboxylic acid]	260.12%	2540 nM	90.21%	3240 nM
Cc1cccc(-n2nc(C(C)C)c3c(-c4ccc(N5CCC(C#N)CC5)nc4)cc(C(=O)O)nc32)c1 [compound 175, 4-[6-(4-cyanopiperidin-1-yl)pyridin-3-yl]-1-(3-methylphenyl)-3-(propan-2-yl)-1H-pyrazolo[3,4-b]pyridine-6-carboxylic acid]	522.6%	532 nM	321.67%	809 nM
CC(C)c1nn(-c2cccc(N(C)C)c2)c2nc(C(=O)O)cc(-c3ccc(N4CCC(C#N)CC4)cc3)c12 [compound 176]	619.28%	448 nM	382.28%	528 nM
CC(C)c1nn(-c2cccc(N(C)C)c2)c2nc(C(=O)O)cc(-c3ccc(N4CCC(C#N)CC4)nc3)c12 [compound 177]	606.47%	689 nM	364.43%	701 nM
CC(C)c1nn(-c2cccc(N3CCOCC3)c2)c2nc(C(=O)O)cc(-c3ccc(N4CCC(C#N)CC4)nc3)c12 [compound 178]	591%	458 nM	415%	628 nM
COCCN(C)c1ccc(-c2cc(C(=O)O)nc3c2c(C(C)C)nn3-c2cccc(N3CCOCC3)c2)cn1 [compound 179]	548%	978 nM	329.25%	2820 nM
CC(C)c1nn(C2CCCCC2)c2nc(C(=O)O)cc(-c3ccc(N4CCC(C#N)CC4)nc3)c12 [compound 180, 4-[6-(4-cyanopiperidin-1-yl)pyridin-3-yl]-1-cyclohexyl-3-(propan-2-yl)-1H-pyrazolo[3,4-b]pyridine-6-carboxylic acid]	524.85%	687 nM	249.55%	972 nM
CC(C)c1nn(C2CCCCC2)c2nc(C(=O)O)cc(-c3ccc(N4CCC(F)(F)C4)nc3)c12 [compound 181, 1-cyclohexyl-4-[6-(3,3-difluoropyrrolidin-1-yl)pyridin-3-yl]-3-(propan-2-yl)-1H-pyrazolo[3,4-b]pyridine-6-carboxylic acid]	397.95%	1060 nM	149.2%	1220 nM
CN(c1ccc(-c2cc(C(=O)O)nc3c2c(C2CCC2)nn3-c2ccccc2)cn1)C1CCOCC1 [compound 183, 3-cyclobutyl-4-{6-[methyl(oxan-4-yl)amino]pyridin-3-yl}-1-phenyl-1H-pyrazolo[3,4-b]pyridine-6-carboxylic acid]	469.58%	460 nM	252.9%	528 nM
COCCN(C)c1ccc(-c2cc(C(=O)O)nc3c2c(C(C)C)nn3C2CCCCC2)cc1 [compound 184, 1-cyclohexyl-4-{4-[(2-methoxyethyl)(methyl)amino]phenyl}-3-(propan-2-yl)-1H-pyrazolo[3,4-b]pyridine-6-carboxylic acid]	377.4%	677 nM	170.25%	942 nM
CC(C)c1nn(C2CCCCC2)c2nc(C(=O)O)cc(-c3ccc(N4CCC(C#N)CC4)cc3)c12 [compound 185, 4-[4-(4-cyanopiperidin-1-yl)phenyl]-1-cyclohexyl-3-(propan-2-yl)-1H-pyrazolo[3,4-b]pyridine-6-carboxylic acid]	478.6%	520 nM	237.8%	1110 nM
O=C(O)c1cc(-c2ccc(N3CCOCC3)cc2)c2c(C3CCCO3)nn(-c3ccccc3)c2n1 (stereo not drawn) [compound 186, 4-[4-(morpholin-4-yl)phenyl]-3-(oxolan-2-yl)-1-phenyl-1H-pyrazolo[3,4-b]pyridine-6-carboxylic acid]	378.4%	1260 nM	168.7%	1870 nM
CC(C)c1nn(-c2cccc(N3CCOCC3)c2)c2nc(C(=O)O)cc(-c3ccc(N(C)C4CCOCC4)nc3)c12 [compound 187, 4-{6-[methyl(oxan-4-yl)amino]pyridin-3-yl}-1-[3-(morpholin-4-yl)phenyl]-3-(propan-2-yl)-1H-pyrazolo[3,4-b]pyridine-6-carboxylic acid]	522%	565 nM	367.4%	674 nM
COCCN(C)c1ccc(-c2cc(C(=O)O)nc3c2c(C(C)C)nn3-c2cccc(N3CCOCC3)c2)cc1 [compound 188, 4-{4-[(2-methoxyethyl)(methyl)amino]phenyl}-1[3-(morpholin-4-yl)phenyl]-3-(propan-2-yl)-1H-pyrazolo[3,4-b]pyridine-6-carboxylic acid]	432.9%	499 nM	282.4%	636 nM
CC(C)c1nn(-c2cccc(N(C)C)c2)c2nc(C(=O)O)cc(-c3ccc(N(C)C4CCOCC4)nc3)c12 [compound 189, 1-[3-(dimethylamino)phenyl]-4-{6-[methyl(oxan-4-yl)amino]pyridin-3-yl}-3-(propan-2-yl)-1H-pyrazolo[3,4-b]pyridine-6-carboxylic acid]	590.78%	292 nM	385.02%	514 nM
COC1CCCN(c2cc(C(=O)O)nc3c2c(C(C)C)nn3-c2cccc(C)c2)C1 (stereo not drawn) [compound 190, 4-(3-methoxypiperidin-1-yl)-1-(3-methylphenyl)-3-(propan-2-yl)-1H-pyrazolo[3,4-b]pyridine-6-carboxylic acid]	301.85%	634 nM	136.12%	929 nM
CN(C)c1ccc(-c2cc(C(=O)O)nc3c2c(C2CC2)nn3C2CCCCC2)cn1 [compound 193, 1-cyclohexyl-3-cyclopropyl-4-[6-(dimethylamino)pyridin-3-yl]-1H-pyrazolo[3,4-b]pyridine-6-carboxylic acid]	402.32%	425 nM	194.98%	633 nM
CC1CN(c2ccc(-c3cc(C(=O)O)nc4c3c(C(C)C)nn4C3CCCCC3)cn2)CC(C)O1 (stereo not drawn) [compound 196, 1-cyclohexyl-4-[6-(2,6-dimethylmorpholin-4-yl)pyridin-3-yl]-3-(propan-2-yl)-1H-pyrazolo[3,4-b]pyridine-6-carboxylic acid]	520.8%	596 nM	251.45%	555 nM
CC(C)c1nn(C2CCCCC2)c2nc(C(=O)O)cc(-c3ccc(N4CCOC(C)(C)C4)nc3)c12 [compound 197, 1-cyclohexyl-4-[6-(2,2-dimethylmorpholin-4-yl)pyridin-3-yl]-3-(propan-2-yl)-1H-pyrazolo[3,4-b]pyridine-6-carboxylic acid]	445.2%	432 nM	219.25%	644 nM
Cc1nn(-c2ccccc2)c2nc(C(=O)O)cc(-c3ccc(N4CCCC(O)C4)cc3)c12 (stereo not drawn) [compound 198, 4-[4-(3-hydroxypiperidin-1-yl)phenyl]-3-methyl-1-phenyl-1H-pyrazolo[3,4-b]pyridine-6-carboxylic acid]	364%	1010 nM	220%	1120 nM
CC(C)c1nn(-c2cccc(N(C)C)c2)c2nc(C(=O)O)cc(-c3cnc(N4CCC(C#N)CC4)nc3)c12 [compound 199, 4-[2-(4-cyanopiperidin-1-yl)pyrimidin-5-yl]-1-[3-(dimethylamino)phenyl]-3-(propan-2-yl)-1H-pyrazolo[3,4-b]pyridine-6-carboxylic acid]	602.4%	917 nM	356.9%	1220 nM
CC(C)c1nn(-c2cccc(N(C)C)c2)c2nc(C(=O)O)cc(-c3cnc(N(C)C4CCOCC4)nc3)c12 [compound 200, 1-[3-(dimethylamino)phenyl]-4-{2-[methyl(oxan-4-yl)amino]pyrimidin-5-yl}-3-(propan-2-yl)-1H-pyrazolo[3,4-b]pyridine-6-carboxylic acid]	594.2%	514 nM	330.83%	438 nM
Cc1cccc(-n2nc(C(C)C)c3c(N4CCC5(CC4)COC5)cc(C(=O)O)nc32)c1 [compound 202, 1-(3-methylphenyl)-4-(2-oxa-7-azaspiro[3.5]nonan-7-yl)-3-(propan-2-yl)-1H-pyrazolo[3,4-b]pyridine-6-carboxylic acid]	309.3%	609 nM	136.8%	795 nM
CC(C)c1nn(C2CCCCC2)c2nc(C(=O)O)cc(-c3ccc(N4CCC(C)(C#N)CC4)nc3)c12 [compound 203, 4-[6-(4-cyano-4-methylpiperidin-1-yl)pyridin-3-yl]-1-cyclohexyl-3-(propan-2-yl)-1H-pyrazolo[3,4-b]pyridine-6-carboxylic acid]	361.75%	756 nM	162.5%	843 nM
